According to patent US8685974B2 (Bayer CropScience AG, priority 2009, dated 2014):
Where two headings read alike, the source gives them in different places. Marks after values point to notes of the source that are not given here.

How the values were obtained:
Fusarium proliferatum = assay: Production of fumonisin FB1 by Fusarium proliferatum (microtiter plate, HPLC-MS/MS and OD620); assay type: cell-based; conditions: for % inhibition FB1 production at 50 μM: 5 days at 20° C., HPLC-MS/MS; for % inhibition fungal growth at 50 μM: Fusarium proliferatum, OD620 at start and after 5 days
Pyrenophora teres = assay: In vivo test on Pyrenophora teres (barley net blotch); conditions: dose of 500 ppm; barley plants; grading 12 days after contamination
How it was run: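 Scoring is done 12 days after spore spraying (12,000 spores/ml, from 12-day-old culture), relative to water-treated controls. Inoculation follows by 24 h a preventive spray of the aqueous-diluted formulation onto 1-leaf Plaisant barley raised at 12° C.; infection holds 24 h at about 20° C./100% RH, then 12 days at 80% RH.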

Alternaria solani = assay: Alternaria test (tomato) / protective; assay type: in vivo; conditions: 500 ppm active compound, protective spray, evaluated 7 days after inoculation
How it was run: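 Efficacy scored 7 days after inoculation, where 100% means no infection and 0% matches the untreated control. Test plants were young tomatoes given a protective spray at the stated rate, compound dissolved in DMF plus emulsifier and diluted with water. Incubation at 20° C, 96% relative humidity.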

Fusarium graminearum = assay type: cell-based; conditions: 50 μM; for % Inhibition of DON/AcDON at 50 μM: 7 days at 28° C.
Leptosphaeria nodorum = Leptosphaeria nodorum test (wheat) / protective; assay type: in vivo; conditions: 500 ppm active compound, protective spray, evaluated 7-9 days after inoculation
Protocol: Leptosphaeria nodorum Test (Wheat)/Protective
Solvent: 49 parts by weight of N,N-dimethylformamide
Emulsifier: 1 part by weight of alkylaryl polyglycol ether
To produce a suitable preparation of active compound, 1 part by weight of active compound is mixed with the stated amounts of solvent and emulsifier, and the concentrate is diluted with water to the desired concentration.
To test for protective activity, young wheat plants are sprayed with the preparation of active compound at the stated application rate. […] The plants are then placed in a greenhouse at 90% rel. atmospheric humidity and a temperature of 22° C.
Evaluation is carried out 7-9 days after the inoculation. 0% means an efficacy which corresponds to that of the control, whereas an efficacy of 100% means that no infection is observed.

Structure (SMILES)	% inhibition FB1 production at 50 μM (Fusarium proliferatum) [%]	% inhibition fungal growth at 50 μM (Fusarium proliferatum) [%]	log p (pH 2.7)	protection (Pyrenophora teres) [%]	logP value of the minor isomer (in parenthesis in column Isomer ratio [d]) (minor isomer, main value of the example measured by method [b], pH 2.7)	efficacy (Alternaria solani) [%]	log p (pH 2.3)	% Inhibition of fungal growth at 50 μM (Fusarium graminearum) [%]	% Inhibition of DON/AcDON at 50 μM (Fusarium graminearum) [%]	efficacy (Leptosphaeria nodorum) [%]	chromatographic logP (physchem; pH 2.7)	chromatographic logP (physchem; pH 7.8)	logP value of the minor isomer (pH 2.7)
CC(=O)n1cc(-c2ccncn2)c(-c2ccc(Cl)s2)n1 [Example 4]	89	22	2.92^[b]										
Clc1ccc(-c2nn(Cc3ccccc3)cc2-c2ccncn2)s1 [Example 5]	81	0	3.41^[b]	70	(3.17)								
CCC(C)n1cc(-c2ccnc(C#N)c2)c(-c2ccc(Cl)s2)n1 (centres unmarked) [Example 97]	99	17	4.41^[b]			90							
CC(C)Cn1cc(-c2ccnc(NC(=O)C(C)C)n2)c(-c2ccc(Cl)s2)n1 [Example 98]	97	4					3.67^[a]						
COc1ccc(Cn2nc(-c3ccc(Cl)s3)c(-c3ccncc3)c2C2CC2)cc1 [Example 101]	87	0	2.69^[b]										
CCC(C)n1cc(-c2ccncc2)c(-c2ccc(F)s2)n1 (centres unmarked) [Example 106]	98	39	1.78^[b]			100		98	99				
CCC(C)n1ncc(-c2ccncc2)c1-c1ccc(F)s1 (centres unmarked) [Example 107]	80	1	1.69^[b]					86	100				
CC(C)n1cc(-c2ccncc2)c(-c2ccc(F)s2)n1 [Example 108]	100	25	1.53^[b]			100		99	100				
CCC(C)n1cc(-c2ccnc(NC(C)=O)c2)c(-c2ccc(Cl)s2)n1 (centres unmarked) [Example 110]	99	86	2.94^[b]	100		95		99	100	95			
CCC(=O)Nc1cc(-c2cn(C(C)CC)nc2-c2cc(Cl)cs2)ccn1 (centres unmarked) [Example 164, N-{4-[1-sec-Butyl-3-(4-chloro-2-thienyl)-1H-pyrazol-4-yl]pyridin-2-yl}propanamide]				100		90				95	3.07	3.59	
CCC(C)n1cc(-c2ccncc2)c(-c2cc(Cl)cs2)n1 (centres unmarked) [Example 167, 4-[1-sec-Butyl-3-(4-chloro-2-thienyl)-1H-pyrazol-4-yl]pyridine]				95		90				90	1.86		(1.76)
CCC(=O)Nc1cc(-c2cn(CC)nc2-c2ccc(Cl)s2)ccn1 [Example 263]			2.4^[b]	90		95		100	99	80			
CCn1cc(-c2ccnc(NC(=O)C3CC3)c2)c(-c2ccc(Cl)s2)n1 [Example 264]			2.52^[b]	90		90		100	99	80			
CCC(=O)Nc1cc(-c2cn(C)nc2-c2ccc(Cl)s2)ccn1 [Example 278]			2.05^[b]	90		90		100	98	80			
Cn1cc(-c2ccnc(NC(=O)C3CC3)c2)c(-c2ccc(Cl)s2)n1 [Example 279]			2.16^[b]	95		80		100	98	70			
Cn1cc(-c2ccnc(NC(=O)CC3CC3)c2)c(-c2ccc(Cl)s2)n1 [Example 281]			2.54^[b]	90		90		100	99	80			
CCn1cc(-c2ccnc(NC(C)=O)c2)c(-c2ccc(Cl)s2)n1 [Example 284]			2.1^[b]	100		95		100	99	80			
